Data reported in ChEMBL document CHEMBL1201862, “PubChem BioAssay data set” (2004).
Activity calls are given as the source filed them.

How the values were obtained:
[1] = target: Voltage-dependent T-type calcium channel subunit alpha-1H (Homo sapiens, UniProt O95180); assay type: functional;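 further: channel activity triggered by adding a high calcium stimulation buffer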
[2] = target: T1, Beta-2 adrenergic receptor (Homo sapiens, UniProt P07550); assay: beta2AR agonists driving receptor internalization, dose response, cell-based, FAP fluorogen, flow cytometry, cherry pick 1 (AID 588763); assay type: functional
[3] = target: T1, Beta-2 adrenergic receptor; assay: Dose response for HTS for Beta-2AR agonists via FAP method from Powderset3.; assay type: functional
[4] = test system: HeLa; assay: HeLa cell cytotoxicity, dose response, cytotoxicity control, ATP luminescence, cherry-pick samples (AID 687004); assay type: functional, cell-based; settings: Homo sapiens
[5] = HeLa cell cytotoxicity, dose response, cytotoxicity control for MgcRacGAP inhibitor project (AID 624300); assay type: functional
[6] = target: T2, Rac GTPase-activating protein 1 (Homo sapiens, UniProt Q9H0H5); assay: MgcRacGAP GTPase-activating activity inhibitors, confirmation, biochemical, ADP Hunter fluorescence, primary and confirmatory (AID 624330); assay type: functional
T2 sequence (Q9H0H5 whole entry): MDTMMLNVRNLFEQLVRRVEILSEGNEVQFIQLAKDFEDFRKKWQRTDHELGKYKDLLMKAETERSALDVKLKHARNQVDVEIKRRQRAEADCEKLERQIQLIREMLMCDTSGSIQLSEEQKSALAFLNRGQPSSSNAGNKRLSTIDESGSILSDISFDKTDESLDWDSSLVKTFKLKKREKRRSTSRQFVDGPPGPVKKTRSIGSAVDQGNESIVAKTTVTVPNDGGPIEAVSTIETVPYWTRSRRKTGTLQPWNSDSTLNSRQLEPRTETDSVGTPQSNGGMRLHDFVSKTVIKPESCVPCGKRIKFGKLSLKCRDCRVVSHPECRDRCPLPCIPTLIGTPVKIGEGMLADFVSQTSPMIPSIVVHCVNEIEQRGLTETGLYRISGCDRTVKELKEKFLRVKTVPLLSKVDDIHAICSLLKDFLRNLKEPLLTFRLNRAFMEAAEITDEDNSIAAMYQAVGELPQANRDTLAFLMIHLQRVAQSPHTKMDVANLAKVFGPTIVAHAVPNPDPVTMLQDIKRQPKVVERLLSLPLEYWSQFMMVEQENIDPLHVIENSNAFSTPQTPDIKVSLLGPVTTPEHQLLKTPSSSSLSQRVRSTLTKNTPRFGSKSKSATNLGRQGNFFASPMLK

[7] = target: Arf-GAP with SH3 domain, ANK repeat and PH domain-containing protein 1 (Homo sapiens, UniProt Q9ULH1); assay type: functional;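 further: biochemical fluorescence polarization dose–response screen measuring inhibition of ASAP1; ASAP1 GAP domain stimulating GTP hydrolysis by truncated human ARF1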
[8] = target: T3, Histone-lysine N-methyltransferase NSD2 (Homo sapiens, UniProt O96028); assay type: biochemical
T3 sequence (O96028 whole entry): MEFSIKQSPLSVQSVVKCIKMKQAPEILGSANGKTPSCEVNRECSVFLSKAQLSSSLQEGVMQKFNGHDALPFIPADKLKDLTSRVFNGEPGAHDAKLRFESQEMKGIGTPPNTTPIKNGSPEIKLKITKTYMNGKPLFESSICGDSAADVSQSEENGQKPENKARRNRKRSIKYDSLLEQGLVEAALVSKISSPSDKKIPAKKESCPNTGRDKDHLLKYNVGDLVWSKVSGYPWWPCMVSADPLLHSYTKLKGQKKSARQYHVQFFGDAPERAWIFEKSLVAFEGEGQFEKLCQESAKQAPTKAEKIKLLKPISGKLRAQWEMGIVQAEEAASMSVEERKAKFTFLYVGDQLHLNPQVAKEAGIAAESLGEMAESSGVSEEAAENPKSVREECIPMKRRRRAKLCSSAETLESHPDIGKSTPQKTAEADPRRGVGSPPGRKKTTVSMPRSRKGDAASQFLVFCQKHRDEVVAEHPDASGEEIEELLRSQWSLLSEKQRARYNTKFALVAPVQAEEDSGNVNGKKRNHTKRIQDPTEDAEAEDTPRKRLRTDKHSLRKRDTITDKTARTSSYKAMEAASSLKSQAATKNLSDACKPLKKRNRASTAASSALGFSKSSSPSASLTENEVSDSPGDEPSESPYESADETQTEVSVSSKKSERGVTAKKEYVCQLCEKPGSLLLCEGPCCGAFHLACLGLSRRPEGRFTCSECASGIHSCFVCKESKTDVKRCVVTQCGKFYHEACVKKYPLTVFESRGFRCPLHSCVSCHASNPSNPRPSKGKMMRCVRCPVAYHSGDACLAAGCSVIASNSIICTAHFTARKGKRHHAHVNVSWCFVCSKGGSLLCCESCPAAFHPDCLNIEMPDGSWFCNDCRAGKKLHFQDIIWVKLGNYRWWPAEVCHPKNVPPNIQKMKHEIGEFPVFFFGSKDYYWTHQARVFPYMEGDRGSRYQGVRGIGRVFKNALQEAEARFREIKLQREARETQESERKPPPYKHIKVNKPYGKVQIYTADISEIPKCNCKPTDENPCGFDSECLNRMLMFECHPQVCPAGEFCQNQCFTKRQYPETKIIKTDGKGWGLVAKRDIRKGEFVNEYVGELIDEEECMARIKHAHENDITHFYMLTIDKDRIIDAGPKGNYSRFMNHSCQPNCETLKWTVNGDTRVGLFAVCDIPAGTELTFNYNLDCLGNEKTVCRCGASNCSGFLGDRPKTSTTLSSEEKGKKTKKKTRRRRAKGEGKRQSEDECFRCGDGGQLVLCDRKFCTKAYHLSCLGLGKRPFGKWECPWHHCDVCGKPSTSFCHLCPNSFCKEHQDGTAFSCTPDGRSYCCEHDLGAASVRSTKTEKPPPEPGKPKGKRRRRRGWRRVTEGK

[9] = human group III sPLA2 inhibitors, dose response, biochemical, QFRET, IC50 (AID 743457);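 further: green fluorescence rise as the enzyme cleaves BODIPY PC-A2 in liposomes; potency for inhibition of the enzyme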
[10] = target: Beta-lactamase (Pseudomonas aeruginosa, UniProt Q79MP6);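 further: biochemical dose-response test of metallo-beta-lactamase enzyme inhibition, read out by epi-absorbance; purified recombinant IMP-1 metallo-beta-lactamase with nitrocefin as substrate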
[11] = target: Beta-lactamase (Salmonella choleraesuis (strain SC-B67), UniProt Q5J463)
[12] = target: T4, Insulin-degrading enzyme (Homo sapiens, UniProt P14735); assay: activators of recombinant IDE enzyme, dose response, counter-screen for IDE activator project, biochemical, fluorescence polarization (AID 588681)
T4 sequence (P14735 whole entry): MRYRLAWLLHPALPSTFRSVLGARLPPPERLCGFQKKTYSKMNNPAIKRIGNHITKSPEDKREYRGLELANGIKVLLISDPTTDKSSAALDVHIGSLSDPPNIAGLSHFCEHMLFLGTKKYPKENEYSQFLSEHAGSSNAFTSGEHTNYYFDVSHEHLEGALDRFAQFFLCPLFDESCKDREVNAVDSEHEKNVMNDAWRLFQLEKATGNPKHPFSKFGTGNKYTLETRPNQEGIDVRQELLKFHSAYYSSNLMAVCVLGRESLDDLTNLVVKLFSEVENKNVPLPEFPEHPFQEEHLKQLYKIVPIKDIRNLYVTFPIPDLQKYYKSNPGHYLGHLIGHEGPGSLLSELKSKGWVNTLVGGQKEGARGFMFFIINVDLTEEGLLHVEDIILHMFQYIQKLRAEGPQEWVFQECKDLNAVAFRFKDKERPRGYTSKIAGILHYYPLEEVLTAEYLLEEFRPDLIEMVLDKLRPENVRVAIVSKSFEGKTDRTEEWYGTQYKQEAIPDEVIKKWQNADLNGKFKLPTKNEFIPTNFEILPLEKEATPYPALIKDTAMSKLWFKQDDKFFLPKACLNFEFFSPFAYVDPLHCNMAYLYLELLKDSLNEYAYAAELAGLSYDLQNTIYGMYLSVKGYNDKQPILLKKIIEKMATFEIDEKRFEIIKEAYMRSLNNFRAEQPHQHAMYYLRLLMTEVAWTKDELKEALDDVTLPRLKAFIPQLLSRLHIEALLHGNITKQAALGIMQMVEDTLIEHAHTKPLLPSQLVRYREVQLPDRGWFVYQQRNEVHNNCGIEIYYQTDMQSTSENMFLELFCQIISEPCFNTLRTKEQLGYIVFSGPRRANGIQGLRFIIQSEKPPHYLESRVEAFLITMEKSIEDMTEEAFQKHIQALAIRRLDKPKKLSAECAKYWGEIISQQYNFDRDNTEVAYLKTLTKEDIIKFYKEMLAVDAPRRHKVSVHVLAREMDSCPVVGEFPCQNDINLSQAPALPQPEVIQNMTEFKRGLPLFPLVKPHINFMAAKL

[13] = target: T4, Insulin-degrading enzyme; assay: activators of endogenous IDE in HEK cells, dose response, cell-based, fluorescence polarization (AID 588439); assay type: functional
[14] = test system: HEK293; assay: HEK cell cytotoxicity by LDH release, dose response, cytotoxicity control for IDE activator project, fluorescence, HEK cells (AID 588440); assay type: functional, cell-based; settings: Homo sapiens;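 further: cytotoxicity by LDH release measuring loss of membrane integrity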
[15] = test system: HEK293; assay: optical interference in Abeta FP readout, dose response, artefact control for IDE activator project, biochemical, fluorescence polarization (AID 588442); assay type: functional, cell-based; settings: Homo sapiens
[16] = target: Long-chain-fatty-acid--AMP ligase FadD28 (Mycobacterium tuberculosis, UniProt P9WQ59); assay: Fluorescence polarization aasay to screen for inhibitors that compete for the binding of FadD28 to a bisubstrate Measured in Biochemical System Using Plate Reader - 2147-01_Inhibitor_Dose_CherryPick_Activity.; assay type: functional, Mycobacterium tuberculosis H37Rv
[17] = target: Cytochrome P450 3A4 (Homo sapiens, UniProt P08684);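 further: CYP3A4 tested as one member of a cytochrome P450 panel screen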
[18] = Luminescence Cell-Based Dose Response HTS to Identify Activators of Luciferase Translation or Activity in H4-C Neuroglioblastoma Cells. [Related pubchem assays: 1829 (Project Summary), 1814 (Primary HTS)]; assay type: functional
[19] = Luminescence Cell-Based Dose Retest to Confirm Activators of 5'UTR Stem-Loop Driven Alpha-Synuclein mRNA Translation in H4 Neuroglioblastoma Cells. [Related pubchem assays (depositor defined):AID1813, AID1829]; assay type: functional
[20] = Luminescence Cell-Based Dose Response HTS to Identify Activators of 5'UTR Stem-Loop Driven Prion Protein mRNA Translation in H4-C Neuroglioblastoma Cells. [Related pubchem assays: 1829 (Project Summary), 1814 (Primary HTS)]; assay type: functional
[21] = Luminescence Cell-Based Dose Confirmation HTS to Identify Activators of 5'UTR Stem-Loop Driven Alpha-Synuclein mRNA Translation in H4 Neuroglioblastoma Cells. [Related pubchem assays: 1829 (Project Summary), 1814 (Primary HTS)]; assay type: functional
[22] = Luminescence Cell-Based Dose Response HTS to Identify Activators of Luciferase Translation or Activity in H4 […] Cells. [Related pubchem assays: 1829 (Project Summary), 1814 (Primary HTS)]; assay type: functional
[23] = test system: H4; assay: Luminescence Cell-Based Dose Response HTS to Identify Activators of 5'UTR Stem-Loop Driven Prion Protein mRNA Translation in H4 Neuroglioblastoma Cells. [Related pubchem assays: 1829 (Project Summary), 1814 (Primary HTS)]; assay type: functional; settings: Homo sapiens
[24] = HepG2 cell cytotoxicity, dose response, cytotoxicity control, cherry-picks, set 5 (AID 1053118); assay type: functional, cell-based

T1 sequence (P07550 whole entry): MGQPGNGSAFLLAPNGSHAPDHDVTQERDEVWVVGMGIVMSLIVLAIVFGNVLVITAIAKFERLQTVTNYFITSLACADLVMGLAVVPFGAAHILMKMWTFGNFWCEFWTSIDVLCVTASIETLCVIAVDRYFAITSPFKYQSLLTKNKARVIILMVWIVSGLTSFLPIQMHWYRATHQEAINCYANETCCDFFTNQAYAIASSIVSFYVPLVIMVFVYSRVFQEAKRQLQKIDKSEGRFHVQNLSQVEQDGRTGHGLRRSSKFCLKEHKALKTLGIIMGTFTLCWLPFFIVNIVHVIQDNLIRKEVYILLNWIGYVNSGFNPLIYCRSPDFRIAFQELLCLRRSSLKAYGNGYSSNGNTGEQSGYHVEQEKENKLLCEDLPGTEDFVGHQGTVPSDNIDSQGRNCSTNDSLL
Sequence of Voltage-dependent T-type calcium channel subunit alpha-1H (O95180 whole entry): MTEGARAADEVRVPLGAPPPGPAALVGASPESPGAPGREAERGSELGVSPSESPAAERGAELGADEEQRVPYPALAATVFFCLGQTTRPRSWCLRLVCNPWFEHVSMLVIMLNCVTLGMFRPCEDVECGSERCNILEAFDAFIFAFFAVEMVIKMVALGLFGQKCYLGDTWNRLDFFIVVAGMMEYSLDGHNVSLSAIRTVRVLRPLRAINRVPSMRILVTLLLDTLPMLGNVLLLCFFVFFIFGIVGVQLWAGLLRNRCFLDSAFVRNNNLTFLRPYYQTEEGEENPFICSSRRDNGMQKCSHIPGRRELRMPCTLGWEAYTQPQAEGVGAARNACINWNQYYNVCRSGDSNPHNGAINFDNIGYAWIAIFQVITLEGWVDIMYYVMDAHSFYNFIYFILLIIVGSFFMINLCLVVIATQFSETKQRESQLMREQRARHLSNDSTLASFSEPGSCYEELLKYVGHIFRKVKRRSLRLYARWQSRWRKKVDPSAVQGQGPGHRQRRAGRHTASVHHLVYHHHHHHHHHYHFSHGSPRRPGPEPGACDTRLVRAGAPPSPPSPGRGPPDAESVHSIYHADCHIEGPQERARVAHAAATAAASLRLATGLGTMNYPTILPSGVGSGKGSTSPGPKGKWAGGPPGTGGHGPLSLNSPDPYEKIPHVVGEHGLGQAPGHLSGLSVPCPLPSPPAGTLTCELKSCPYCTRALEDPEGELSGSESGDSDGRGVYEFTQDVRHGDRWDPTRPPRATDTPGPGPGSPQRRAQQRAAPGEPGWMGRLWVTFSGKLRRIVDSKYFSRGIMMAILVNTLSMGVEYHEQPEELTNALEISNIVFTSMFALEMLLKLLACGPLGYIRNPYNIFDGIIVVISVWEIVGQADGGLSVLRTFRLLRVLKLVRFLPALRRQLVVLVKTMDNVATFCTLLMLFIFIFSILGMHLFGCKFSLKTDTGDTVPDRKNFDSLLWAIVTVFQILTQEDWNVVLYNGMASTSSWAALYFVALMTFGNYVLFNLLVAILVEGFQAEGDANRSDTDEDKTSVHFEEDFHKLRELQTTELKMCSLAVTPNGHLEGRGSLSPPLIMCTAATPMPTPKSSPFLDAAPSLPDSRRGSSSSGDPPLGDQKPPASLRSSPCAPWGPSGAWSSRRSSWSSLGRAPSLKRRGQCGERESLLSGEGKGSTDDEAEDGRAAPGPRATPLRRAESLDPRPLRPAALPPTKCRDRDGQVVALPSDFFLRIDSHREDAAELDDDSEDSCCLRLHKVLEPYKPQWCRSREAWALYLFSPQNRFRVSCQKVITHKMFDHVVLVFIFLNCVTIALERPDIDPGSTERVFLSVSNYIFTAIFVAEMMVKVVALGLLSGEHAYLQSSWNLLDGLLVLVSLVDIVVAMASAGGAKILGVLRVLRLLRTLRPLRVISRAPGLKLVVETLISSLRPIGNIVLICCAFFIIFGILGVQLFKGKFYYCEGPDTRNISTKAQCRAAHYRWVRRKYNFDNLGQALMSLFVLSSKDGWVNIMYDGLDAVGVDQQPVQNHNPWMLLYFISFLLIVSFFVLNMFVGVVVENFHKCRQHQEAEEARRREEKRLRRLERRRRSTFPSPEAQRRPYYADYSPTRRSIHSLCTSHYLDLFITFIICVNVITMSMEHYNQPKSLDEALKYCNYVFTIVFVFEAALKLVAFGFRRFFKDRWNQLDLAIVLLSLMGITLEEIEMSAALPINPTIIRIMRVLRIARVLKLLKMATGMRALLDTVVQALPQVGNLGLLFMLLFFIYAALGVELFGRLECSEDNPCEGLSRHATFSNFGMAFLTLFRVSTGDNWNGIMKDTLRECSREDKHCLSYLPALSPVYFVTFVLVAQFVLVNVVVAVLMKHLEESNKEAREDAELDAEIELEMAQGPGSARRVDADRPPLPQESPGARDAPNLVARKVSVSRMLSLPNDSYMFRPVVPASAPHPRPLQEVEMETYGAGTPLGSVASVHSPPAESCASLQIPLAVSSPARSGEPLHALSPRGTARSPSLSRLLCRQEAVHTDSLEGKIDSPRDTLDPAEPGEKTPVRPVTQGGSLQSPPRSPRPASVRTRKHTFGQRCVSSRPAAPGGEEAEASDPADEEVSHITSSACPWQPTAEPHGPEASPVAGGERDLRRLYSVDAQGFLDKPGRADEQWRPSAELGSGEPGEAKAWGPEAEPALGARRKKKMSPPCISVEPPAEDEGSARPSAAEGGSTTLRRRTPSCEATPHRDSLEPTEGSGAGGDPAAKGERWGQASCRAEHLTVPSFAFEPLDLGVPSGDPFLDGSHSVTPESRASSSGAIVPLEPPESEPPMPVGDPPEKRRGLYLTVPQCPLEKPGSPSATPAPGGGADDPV
Sequence of Cytochrome P450 3A4 (P08684 whole entry): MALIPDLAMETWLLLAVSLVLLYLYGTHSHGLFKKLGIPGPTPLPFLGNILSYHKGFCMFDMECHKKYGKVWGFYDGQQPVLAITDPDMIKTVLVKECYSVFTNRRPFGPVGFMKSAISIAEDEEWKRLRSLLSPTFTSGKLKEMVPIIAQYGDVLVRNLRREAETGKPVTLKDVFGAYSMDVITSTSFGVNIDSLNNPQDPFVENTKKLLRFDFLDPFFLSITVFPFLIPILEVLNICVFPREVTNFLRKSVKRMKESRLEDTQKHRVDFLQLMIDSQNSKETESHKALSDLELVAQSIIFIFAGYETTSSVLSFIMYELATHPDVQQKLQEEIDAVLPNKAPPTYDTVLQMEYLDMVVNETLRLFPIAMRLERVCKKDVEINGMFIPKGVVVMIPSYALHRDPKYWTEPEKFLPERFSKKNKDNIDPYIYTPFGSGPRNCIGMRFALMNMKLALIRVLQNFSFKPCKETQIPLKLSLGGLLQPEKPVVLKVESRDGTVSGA
Sequence of Arf-GAP with SH3 domain, ANK repeat and PH domain-containing protein 1 (Q9ULH1 whole entry, the tested form may be a part): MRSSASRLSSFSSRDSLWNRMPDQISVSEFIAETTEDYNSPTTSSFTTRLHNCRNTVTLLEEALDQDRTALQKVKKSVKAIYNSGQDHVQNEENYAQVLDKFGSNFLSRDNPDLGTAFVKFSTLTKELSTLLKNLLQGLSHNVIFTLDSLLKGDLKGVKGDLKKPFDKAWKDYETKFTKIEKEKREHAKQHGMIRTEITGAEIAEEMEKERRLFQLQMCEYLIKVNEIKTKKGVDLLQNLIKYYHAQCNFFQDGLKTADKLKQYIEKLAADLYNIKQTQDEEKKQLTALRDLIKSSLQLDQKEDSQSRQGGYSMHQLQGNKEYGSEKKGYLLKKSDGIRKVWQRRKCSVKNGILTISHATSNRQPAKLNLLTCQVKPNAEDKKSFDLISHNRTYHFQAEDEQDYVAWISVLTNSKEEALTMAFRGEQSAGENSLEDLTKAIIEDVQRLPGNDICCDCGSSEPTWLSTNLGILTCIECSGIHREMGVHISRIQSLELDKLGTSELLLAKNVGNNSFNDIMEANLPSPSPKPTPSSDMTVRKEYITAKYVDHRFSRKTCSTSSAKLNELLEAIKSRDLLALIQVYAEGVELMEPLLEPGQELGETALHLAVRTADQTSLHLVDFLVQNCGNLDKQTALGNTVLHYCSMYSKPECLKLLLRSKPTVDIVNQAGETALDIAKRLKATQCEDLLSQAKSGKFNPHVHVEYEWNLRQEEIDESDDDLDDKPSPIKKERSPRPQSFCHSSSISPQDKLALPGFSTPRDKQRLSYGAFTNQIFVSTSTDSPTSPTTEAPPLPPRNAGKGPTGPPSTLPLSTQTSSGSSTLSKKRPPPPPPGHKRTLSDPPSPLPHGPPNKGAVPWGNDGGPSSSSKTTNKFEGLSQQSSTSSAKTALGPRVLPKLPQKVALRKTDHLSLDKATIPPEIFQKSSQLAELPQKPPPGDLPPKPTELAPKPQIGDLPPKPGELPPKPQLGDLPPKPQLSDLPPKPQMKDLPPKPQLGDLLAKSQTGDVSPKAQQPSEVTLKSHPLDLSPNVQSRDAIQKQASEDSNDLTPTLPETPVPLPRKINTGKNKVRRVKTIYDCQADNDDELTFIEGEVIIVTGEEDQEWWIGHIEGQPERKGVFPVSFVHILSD
Sequence of Beta-lactamase (Pseudomonas aeruginosa, UniProt Q79MP6) (Q79MP6 whole entry): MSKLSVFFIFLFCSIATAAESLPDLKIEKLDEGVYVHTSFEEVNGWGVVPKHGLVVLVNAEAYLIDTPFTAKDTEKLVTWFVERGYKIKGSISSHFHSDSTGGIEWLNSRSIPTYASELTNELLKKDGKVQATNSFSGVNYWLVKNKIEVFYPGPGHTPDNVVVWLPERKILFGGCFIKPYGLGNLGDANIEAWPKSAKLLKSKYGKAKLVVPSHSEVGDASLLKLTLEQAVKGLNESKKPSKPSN
Sequence of Beta-lactamase (Salmonella choleraesuis (strain SC-B67), UniProt Q5J463) (Q5J463 whole entry): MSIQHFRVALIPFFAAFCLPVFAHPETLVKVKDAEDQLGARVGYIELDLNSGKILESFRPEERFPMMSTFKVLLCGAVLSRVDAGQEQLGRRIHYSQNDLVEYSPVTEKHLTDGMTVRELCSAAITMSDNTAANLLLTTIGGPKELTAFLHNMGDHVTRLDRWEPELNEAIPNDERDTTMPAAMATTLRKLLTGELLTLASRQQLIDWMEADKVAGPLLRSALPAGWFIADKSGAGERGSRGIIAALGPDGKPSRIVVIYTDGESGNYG

## CN(Cc1ccccc1)S(=O)(=O)c1ccc(NS(=O)(=O)Cc2ccccc2)cc1
[1]
  EC50: 3.46 µM (active)
[2]
  EC50: 1.25 µM (active)
[3]
  EC50: 0.0609 µM (active)

## C[C@@H]1CN([C@@H](C)CO)C(=O)Cc2cc(NC(=O)Nc3cccc4ccccc34)ccc2O[C@@H]1CN(C)S(=O)(=O)c1cccs1
[4]
  AC50: 32.3 µM (active)

## CN(C)c1ccc(/C=C/c2cc[n+](C)c3ccccc23)cc1.[O-][Cl+3]([O-])([O-])[O-]
[5]
  CC50: 41.1 µM (active)
[6]
  IC50: 36.1 µM (active)
[7]
  IC50: 21.4 µM (inactive)
[8]
  AC50: 11.7 µM (active)
[9]
  IC50: 28.6 µM (inactive)

## N#CC(C#N)=C1C=C2C=C(N3CCOCC3)CCC2CC1 (centres undefined)
[10]
  IC50: 6.86 µM (active)
[11]
  IC50: 1.49 µM (active)
[12]
  EC50: > 54.7 µM (inactive)
[13]
  EC50: > 54.7 µM (inactive)
[14]
  IC50: > 89.1 µM (inactive)
[15]
  EC50: > 54.7 µM (inactive)

## Cc1cccc(NC(=O)Cn2c(=O)oc3ccccc32)c1
[16]
  AC50: 5.47 µM (active)
[17]
  AC50: 25.1 µM (inconclusive)

## O=c1c2cc(N3CCOCC3)ccc2[nH]c(=S)n1Cc1ccc(Cl)cc1
[18]
  EC50: 2.96 µM (active)
[19]
  EC50: 0.719 µM (active)
[20]
  EC50: 4.66 µM (active)
[21]
  EC50: 5.35 µM (active)
[22]
  EC50: 66.7 µM (active)
[23]
  EC50: 5.33 µM (active)
[24]
  AC50: > 52 µM (inactive)
